From PMC6199744, “Development of Chemical Proteomics for the Folateome and Analysis of the Kinetoplastid Folateome” (ACS Infectious Diseases, 2018)
Where two headings read alike, the source gives them in different places.

Legend:
Assay type in all cases: binding
[1] = target: T1, HeLa cell extract proteins (Homo sapiens, UniProt P06703)
T1 construct: endogenous in cells; host or cells: HeLa cell extract

[2] = target: T2, HeLa cell extract proteins (Homo sapiens, UniProt P08238)
T2 construct: endogenous in cells; host or cells: HeLa cell extract
T2 sequence (P08238 whole entry): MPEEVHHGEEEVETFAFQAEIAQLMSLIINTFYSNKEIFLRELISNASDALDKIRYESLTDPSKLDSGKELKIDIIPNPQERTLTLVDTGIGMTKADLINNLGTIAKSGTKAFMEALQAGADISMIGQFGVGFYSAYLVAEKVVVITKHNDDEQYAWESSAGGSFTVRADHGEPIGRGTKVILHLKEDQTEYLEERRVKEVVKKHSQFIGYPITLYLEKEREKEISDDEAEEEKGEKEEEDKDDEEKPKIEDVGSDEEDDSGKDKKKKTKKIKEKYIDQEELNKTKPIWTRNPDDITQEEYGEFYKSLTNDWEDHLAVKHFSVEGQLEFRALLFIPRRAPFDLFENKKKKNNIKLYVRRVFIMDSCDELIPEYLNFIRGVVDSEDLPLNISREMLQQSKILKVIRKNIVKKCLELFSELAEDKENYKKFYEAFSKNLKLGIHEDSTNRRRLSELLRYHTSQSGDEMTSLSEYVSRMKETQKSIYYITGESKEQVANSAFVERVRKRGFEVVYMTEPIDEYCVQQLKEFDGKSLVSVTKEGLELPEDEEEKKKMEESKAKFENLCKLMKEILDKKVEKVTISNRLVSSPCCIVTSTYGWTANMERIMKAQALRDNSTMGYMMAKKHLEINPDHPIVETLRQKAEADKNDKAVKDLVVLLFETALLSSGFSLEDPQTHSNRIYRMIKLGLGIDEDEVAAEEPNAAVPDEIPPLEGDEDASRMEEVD

[3] = target: T3, HeLa cell extract proteins (Homo sapiens, UniProt P09496)
T3 construct: endogenous in cells; host or cells: HeLa cell extract
T3 sequence (P09496 1-248): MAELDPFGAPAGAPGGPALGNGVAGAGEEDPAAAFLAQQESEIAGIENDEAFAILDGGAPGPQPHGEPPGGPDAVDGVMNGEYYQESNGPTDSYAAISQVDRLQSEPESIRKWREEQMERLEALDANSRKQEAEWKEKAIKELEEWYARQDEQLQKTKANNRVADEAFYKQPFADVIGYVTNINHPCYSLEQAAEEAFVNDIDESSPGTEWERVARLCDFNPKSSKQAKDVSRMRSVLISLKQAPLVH

[4] = target: T4, HeLa cell extract proteins (Homo sapiens, UniProt P15121)
T4 construct: endogenous in cells; host or cells: HeLa cell extract

[5] = target: T5, HeLa cell extract proteins (Homo sapiens, UniProt P16083)
T5 construct: endogenous in cells; host or cells: HeLa cell extract
T5 sequence (P16083 1-231): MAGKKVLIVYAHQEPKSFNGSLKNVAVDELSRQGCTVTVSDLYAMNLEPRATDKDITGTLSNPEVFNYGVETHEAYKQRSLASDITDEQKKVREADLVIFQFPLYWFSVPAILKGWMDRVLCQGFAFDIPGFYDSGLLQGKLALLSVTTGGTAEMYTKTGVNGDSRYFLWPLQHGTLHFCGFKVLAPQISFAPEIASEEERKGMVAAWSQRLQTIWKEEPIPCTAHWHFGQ

[6] = target: T6, HeLa cell extract proteins (Homo sapiens, UniProt P17987)
T6 construct: endogenous in cells; host or cells: HeLa cell extract
T6 sequence (P17987 whole entry): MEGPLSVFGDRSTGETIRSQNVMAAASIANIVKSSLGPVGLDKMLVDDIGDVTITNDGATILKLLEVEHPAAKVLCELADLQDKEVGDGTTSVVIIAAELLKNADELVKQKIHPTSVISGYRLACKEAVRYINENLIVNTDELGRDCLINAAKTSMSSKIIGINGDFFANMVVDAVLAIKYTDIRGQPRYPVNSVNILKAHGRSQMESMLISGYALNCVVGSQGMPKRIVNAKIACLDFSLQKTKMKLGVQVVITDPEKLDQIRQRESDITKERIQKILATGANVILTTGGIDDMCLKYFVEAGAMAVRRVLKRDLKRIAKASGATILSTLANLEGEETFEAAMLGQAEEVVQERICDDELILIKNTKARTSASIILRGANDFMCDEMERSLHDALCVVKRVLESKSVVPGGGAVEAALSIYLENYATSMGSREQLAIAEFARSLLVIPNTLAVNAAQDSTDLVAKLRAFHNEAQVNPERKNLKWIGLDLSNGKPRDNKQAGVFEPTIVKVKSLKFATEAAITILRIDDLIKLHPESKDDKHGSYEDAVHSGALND

[7] = target: T7, HeLa cell extract proteins (Homo sapiens, UniProt P23396)
T7 construct: endogenous in cells; host or cells: HeLa cell extract

[8] = target: T8, HeLa cell extract proteins (Homo sapiens, UniProt P31689)
T8 construct: endogenous in cells; host or cells: HeLa cell extract
T8 sequence (P31689 whole entry): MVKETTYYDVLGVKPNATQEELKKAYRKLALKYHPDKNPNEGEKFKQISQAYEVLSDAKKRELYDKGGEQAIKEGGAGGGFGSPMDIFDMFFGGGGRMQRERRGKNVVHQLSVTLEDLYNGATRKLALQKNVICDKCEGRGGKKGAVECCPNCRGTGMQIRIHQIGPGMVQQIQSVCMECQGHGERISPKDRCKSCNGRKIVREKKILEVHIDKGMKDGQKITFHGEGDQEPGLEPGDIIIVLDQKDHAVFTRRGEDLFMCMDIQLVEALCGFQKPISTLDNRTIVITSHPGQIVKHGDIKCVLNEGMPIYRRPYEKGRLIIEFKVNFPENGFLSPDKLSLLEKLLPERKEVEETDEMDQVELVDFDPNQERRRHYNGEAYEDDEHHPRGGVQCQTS

[9] = target: T9, HeLa cell extract proteins (Homo sapiens, UniProt P51659)
T9 construct: endogenous in cells; host or cells: HeLa cell extract
T9 sequence (P51659 1-736): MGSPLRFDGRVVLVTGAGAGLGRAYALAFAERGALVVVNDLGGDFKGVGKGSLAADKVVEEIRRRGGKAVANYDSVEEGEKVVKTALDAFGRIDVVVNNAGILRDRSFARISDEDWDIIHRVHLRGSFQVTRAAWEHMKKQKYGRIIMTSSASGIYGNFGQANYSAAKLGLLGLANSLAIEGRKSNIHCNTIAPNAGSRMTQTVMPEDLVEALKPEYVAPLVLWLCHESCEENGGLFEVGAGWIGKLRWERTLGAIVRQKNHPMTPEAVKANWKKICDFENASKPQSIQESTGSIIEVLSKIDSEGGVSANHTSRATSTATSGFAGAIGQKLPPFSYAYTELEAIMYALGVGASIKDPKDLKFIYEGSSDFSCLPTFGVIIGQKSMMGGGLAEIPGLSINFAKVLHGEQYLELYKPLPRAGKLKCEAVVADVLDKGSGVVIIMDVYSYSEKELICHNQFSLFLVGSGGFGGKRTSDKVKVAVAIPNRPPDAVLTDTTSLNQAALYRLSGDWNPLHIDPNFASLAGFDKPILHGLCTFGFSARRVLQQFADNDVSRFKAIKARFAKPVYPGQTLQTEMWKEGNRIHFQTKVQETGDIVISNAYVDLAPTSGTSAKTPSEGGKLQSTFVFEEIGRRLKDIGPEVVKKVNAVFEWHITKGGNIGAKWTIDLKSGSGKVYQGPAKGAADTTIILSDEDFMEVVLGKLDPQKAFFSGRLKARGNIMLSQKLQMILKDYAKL

[10] = target: T10, HeLa cell extract proteins (Homo sapiens, UniProt P63208)
T10 construct: endogenous in cells; host or cells: HeLa cell extract
T10 sequence (P63208 whole entry): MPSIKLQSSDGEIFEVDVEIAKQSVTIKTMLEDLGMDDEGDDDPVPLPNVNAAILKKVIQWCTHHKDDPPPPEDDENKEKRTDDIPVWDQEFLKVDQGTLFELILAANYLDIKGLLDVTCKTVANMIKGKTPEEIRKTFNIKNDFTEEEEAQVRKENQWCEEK

[11] = target: T11, HeLa cell extract proteins (Homo sapiens, UniProt P68366)
T11 construct: endogenous in cells; host or cells: HeLa cell extract
T11 sequence (P68366 whole entry): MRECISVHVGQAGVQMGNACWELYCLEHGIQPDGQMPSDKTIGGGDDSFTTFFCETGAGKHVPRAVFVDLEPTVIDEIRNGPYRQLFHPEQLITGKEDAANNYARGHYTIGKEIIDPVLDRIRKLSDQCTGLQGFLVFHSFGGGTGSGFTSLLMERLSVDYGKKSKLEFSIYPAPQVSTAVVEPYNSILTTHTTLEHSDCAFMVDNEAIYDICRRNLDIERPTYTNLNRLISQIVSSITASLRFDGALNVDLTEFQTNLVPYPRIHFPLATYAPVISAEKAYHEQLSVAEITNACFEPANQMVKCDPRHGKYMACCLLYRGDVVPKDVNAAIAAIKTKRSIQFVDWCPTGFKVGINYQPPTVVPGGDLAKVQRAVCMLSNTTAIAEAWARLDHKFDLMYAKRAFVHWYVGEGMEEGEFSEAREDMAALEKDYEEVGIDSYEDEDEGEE

[12] = target: T12, HeLa cell extract proteins (Homo sapiens, UniProt Q7Z3U7)
T12 construct: endogenous in cells; host or cells: HeLa cell extract
T12 sequence (Q7Z3U7 whole entry): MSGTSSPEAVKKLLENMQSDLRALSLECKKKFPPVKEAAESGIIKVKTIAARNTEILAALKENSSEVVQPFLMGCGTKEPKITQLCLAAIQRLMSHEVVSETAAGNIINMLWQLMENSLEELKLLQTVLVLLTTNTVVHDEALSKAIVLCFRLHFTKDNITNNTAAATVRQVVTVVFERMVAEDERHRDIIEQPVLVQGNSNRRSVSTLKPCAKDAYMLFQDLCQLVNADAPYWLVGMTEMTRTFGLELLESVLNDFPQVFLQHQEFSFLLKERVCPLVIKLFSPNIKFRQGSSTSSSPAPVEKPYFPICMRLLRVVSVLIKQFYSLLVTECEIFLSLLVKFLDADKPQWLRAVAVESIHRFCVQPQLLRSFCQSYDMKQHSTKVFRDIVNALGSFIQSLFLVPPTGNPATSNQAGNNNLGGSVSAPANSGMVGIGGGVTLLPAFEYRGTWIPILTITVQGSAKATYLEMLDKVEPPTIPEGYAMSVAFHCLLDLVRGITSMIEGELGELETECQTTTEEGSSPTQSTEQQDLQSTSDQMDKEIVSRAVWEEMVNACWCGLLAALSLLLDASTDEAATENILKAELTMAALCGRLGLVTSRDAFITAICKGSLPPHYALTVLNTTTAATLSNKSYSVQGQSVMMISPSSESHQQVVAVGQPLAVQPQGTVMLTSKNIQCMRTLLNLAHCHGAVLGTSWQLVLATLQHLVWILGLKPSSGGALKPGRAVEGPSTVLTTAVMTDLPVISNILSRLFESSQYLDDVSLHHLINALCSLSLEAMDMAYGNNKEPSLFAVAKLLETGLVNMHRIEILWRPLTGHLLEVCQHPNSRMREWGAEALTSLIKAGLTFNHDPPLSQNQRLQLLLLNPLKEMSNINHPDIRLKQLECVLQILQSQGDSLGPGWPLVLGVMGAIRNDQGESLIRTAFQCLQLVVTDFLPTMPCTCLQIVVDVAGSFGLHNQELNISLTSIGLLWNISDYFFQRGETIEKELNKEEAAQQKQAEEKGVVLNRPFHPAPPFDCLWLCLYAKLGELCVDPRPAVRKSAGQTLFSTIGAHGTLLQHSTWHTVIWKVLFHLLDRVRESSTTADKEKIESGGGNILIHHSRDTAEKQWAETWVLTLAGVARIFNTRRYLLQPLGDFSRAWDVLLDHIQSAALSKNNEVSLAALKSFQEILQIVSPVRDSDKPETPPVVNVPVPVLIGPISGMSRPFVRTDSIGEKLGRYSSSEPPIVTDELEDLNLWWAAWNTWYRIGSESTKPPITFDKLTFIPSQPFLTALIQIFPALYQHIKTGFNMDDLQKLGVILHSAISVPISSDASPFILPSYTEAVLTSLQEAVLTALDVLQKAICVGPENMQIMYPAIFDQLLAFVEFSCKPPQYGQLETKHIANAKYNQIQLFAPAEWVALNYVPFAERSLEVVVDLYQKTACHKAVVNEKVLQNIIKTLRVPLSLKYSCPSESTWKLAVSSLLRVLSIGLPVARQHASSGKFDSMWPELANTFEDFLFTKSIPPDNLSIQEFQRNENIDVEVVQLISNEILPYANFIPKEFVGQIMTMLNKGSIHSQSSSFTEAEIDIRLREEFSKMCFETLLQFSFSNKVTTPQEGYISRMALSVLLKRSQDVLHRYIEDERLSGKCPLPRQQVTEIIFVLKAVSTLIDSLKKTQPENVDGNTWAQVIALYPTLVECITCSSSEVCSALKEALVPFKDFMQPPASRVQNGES

[13] = target: T13, HeLa cell extract proteins (Homo sapiens, UniProt Q9Y3F4)
T13 construct: endogenous in cells; host or cells: HeLa cell extract
T13 sequence (Q9Y3F4 1-350): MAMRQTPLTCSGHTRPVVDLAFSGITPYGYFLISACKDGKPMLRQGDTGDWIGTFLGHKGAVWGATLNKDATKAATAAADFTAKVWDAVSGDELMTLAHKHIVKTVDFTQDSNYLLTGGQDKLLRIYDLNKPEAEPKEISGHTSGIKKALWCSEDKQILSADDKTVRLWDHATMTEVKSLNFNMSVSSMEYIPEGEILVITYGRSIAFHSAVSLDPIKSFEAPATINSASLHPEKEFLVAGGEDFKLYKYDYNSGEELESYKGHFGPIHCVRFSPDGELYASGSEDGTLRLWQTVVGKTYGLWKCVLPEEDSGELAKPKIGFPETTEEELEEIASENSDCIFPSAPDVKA

[14] = target: T14, HeLa cell extract proteins (Homo sapiens, UniProt Q9Y6E2)
T14 construct: endogenous in cells; host or cells: HeLa cell extract
T14 sequence (Q9Y6E2 1-419): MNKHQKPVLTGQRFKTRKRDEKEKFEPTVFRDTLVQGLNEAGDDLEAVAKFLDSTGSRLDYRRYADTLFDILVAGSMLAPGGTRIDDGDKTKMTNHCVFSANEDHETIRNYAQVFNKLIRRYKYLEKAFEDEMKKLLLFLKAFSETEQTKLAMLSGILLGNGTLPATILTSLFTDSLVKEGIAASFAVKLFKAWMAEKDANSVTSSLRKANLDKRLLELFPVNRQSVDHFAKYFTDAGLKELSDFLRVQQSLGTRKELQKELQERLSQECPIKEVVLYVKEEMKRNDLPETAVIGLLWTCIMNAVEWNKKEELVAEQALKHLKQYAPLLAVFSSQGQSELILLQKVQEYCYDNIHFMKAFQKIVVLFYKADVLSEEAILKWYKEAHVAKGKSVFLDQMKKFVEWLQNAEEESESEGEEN

[15] = HeLa, protein HSP90AB1 (HEAT SHOCK PROTEIN HSP 90-BETA.)
[16] = HeLa, protein HSD17B4 (CDNA FLJ55431, HIGHLY SIMILAR TO PEROXISOMAL MULTIFUNCTIONAL ENZYME TYPE 2)

SMILES | fold changes relative to vehicle control ([1]; protein S100A6, HeLa) | fold changes relative to vehicle control [2, 15] | fold changes relative to vehicle control ([3]; HeLa, protein CLTA) | fold changes relative to vehicle control ([4]; protein AKR1B1, HeLa) | fold changes relative to vehicle control ([5]; HeLa, protein NQO2) | fold changes relative to vehicle control ([6]; protein TCP1, HeLa) | fold changes relative to vehicle control ([8]; HeLa, protein DNAJA1) | fold changes relative to vehicle control ([13]; protein STRAP, HeLa) | fold changes relative to vehicle control ([1]; HeLa, protein S100A6) | fold changes relative to vehicle control ([2]; HeLa, protein HSP90AB1) | fold changes relative to vehicle control ([3]; HeLa, captured protein CLTA) | fold changes relative to vehicle control ([4]; HeLa, protein AKR1B1) | fold changes relative to vehicle control ([5]; protein NQO2, HeLa) | fold changes relative to vehicle control ([6]; HeLa, protein TCP1) | fold changes relative to vehicle control ([7]; HeLa, captured protein RPS3) | fold changes relative to vehicle control [9, 16] | fold changes relative to vehicle control ([10]; HeLa, captured protein SKP1) | fold changes relative to vehicle control ([11]; HeLa, protein TUBA4A) | fold changes relative to vehicle control ([12]; HeLa, captured protein MON2) | fold changes relative to vehicle control ([14]; HeLa, protein BZW2) | also measured
CCCCCCOc1cccc(Cc2cnc(N)nc2N)c1 [compound 2] | 1.89 | 2.33 fold | 0.99 | 1.7 | 0.7 | 1.65 | 1.11 | 1.28 | – | – | – | – | – | – | – | – | – | – | – | – | fold changes relative to vehicle control ([7]; captured protein RPS3, HeLa): 1.16; fold changes relative to vehicle control ([9]; protein HSD17B4, HeLa): 1.22; fold changes relative to vehicle control ([10]; captured protein SKP1, HeLa): 1.21; fold changes relative to vehicle control ([11]; captured protein TUBA4A, HeLa): 0.88; fold changes relative to vehicle control ([12]; HeLa, protein MON2): 1.08; fold changes relative to vehicle control ([14]; protein BZW2, HeLa): 1.57
NCCOCCOCC(=O)Nc1nc2ncc(CNc3ccc(C(=O)NC(CCC(=O)O)C(=O)O)cc3)nc2c(=O)[nH]1 (stereo not drawn) [compound 6] | – | – | – | – | – | – | 1.06 | 1.08 | 1.94 | 1.36 | 1.48 | 1.2 | 0.72 | 1.32 | 1.11 | 1.02 | 0.97 | 0.98 | 1.17 | 1.1 | –
CCCCCCOc1ccc(Cc2cnc(N)nc2N)cc1 [compound 1] | 1.13 | 1.5 fold | 0.68 | 1.12 | 0.91 | 1.22 | 1.07 | 1.07 | – | – | – | – | – | – | – | – | – | – | – | – | fold changes relative to vehicle control ([7]; captured protein RPS3, HeLa): 1.08; fold changes relative to vehicle control ([9]; protein HSD17B4, HeLa): 1.07; fold changes relative to vehicle control ([10]; captured protein SKP1, HeLa): 1.04; fold changes relative to vehicle control ([11]; captured protein TUBA4A, HeLa): 0.95; fold changes relative to vehicle control ([12]; HeLa, protein MON2): 1.11; fold changes relative to vehicle control ([14]; protein BZW2, HeLa): 1.11
Nc1nc2c(c(=O)[nH]1)N(C=O)C(CNc1ccc(C(=O)N[C@@H](CCC(=O)O)C(=O)O)cc1)CN2 (stereo partly drawn) [LEU, leucovorin] | – | – | – | – | – | – | 0.99 | 0.85 | 1.3 | 1.08 | 1.19 | 1.1 | 1.1 | 1.04 | 1.08 | 1.25 | 1.09 | 0.9 | 1.04 | 0.99 | –
NCCCNc1ccc(C(=O)NC(CCC(=O)O)C(=O)O)cc1 (stereo not drawn) [compound 7] | – | – | – | – | – | – | 1.15 | 0.86 | 1.26 | 0.98 | 1.4 | 0.95 | 1.04 | 1.07 | 1.15 | 1.07 | 1.01 | 0.99 | 1.25 | 1.12 | –
Nc1nc2[nH]cc(CCc3ccc(C(=O)N[C@@H](CCC(=O)O)C(=O)O)cc3)c2c(=O)[nH]1 [PTX, pemetrexed] | – | – | – | – | – | – | – | – | – | – | – | – | – | – | – | – | – | – | – | – | fold changes relative to vehicle control [1]: 1.46; fold changes relative to vehicle control [2]: 1.14; fold changes relative to vehicle control [3]: 1.55; fold changes relative to vehicle control [4]: 1.22; fold changes relative to vehicle control [5]: 0.16; fold changes relative to vehicle control [6]: 1.08; fold changes relative to vehicle control [7]: 1.18; fold changes relative to vehicle control [8]: 0.93; fold changes relative to vehicle control [9]: 1.15; fold changes relative to vehicle control [10]: 1.13; fold changes relative to vehicle control [11]: 0.83; fold changes relative to vehicle control [12]: 1.05; fold changes relative to vehicle control [13]: 1; fold changes relative to vehicle control [14]: 0.98
